SMILES strings stand for the structures. Like-named read-outs stand apart in the source and are kept apart here. Starred links: 1 amine or outer side, 2 acyl side, 3 side chain; linkers in the order of their positions; H or OH if unused. Non-standard residues stand in square brackets, D forms with d. Residues, ends and D or L forms follow the SMILES beside them. *: point of attachment. NMePhe(3-Cl) = CN[C@@H](Cc1cccc(Cl)c1)C(=O)O; NMeF = CN[C@@H](Cc1ccccc1)C(=O)O; NMeGABA = CN(CCCC(=O)[*:2])[*:1]; NMeI = CC[C@H](C)[C@H](NC)C(=O)O; NMeL = CN[C@@H](CC(C)C)C(=O)O; NMeA = CN[C@@H](C)C(=O)O; dNMeA = CN[C@H](C)C(=O)O; β3hA = C[C@H](N)CC(=O)O; Sar = CNCC(=O)O; tBu = CC(C)(C)*

Series [1] in a line: PAMPA (parallel artificial membrane permeability assay). In kind it is in vitro ADME. The following applies: PAMPA. In short, it runs like this:
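Artificial membrane was 10% (w/v) egg lecithin plus 0.5% (w/v) cholesterol in dodecane on a PVDF filter. A 10 mM DMSO stock was added at 0.5% (v/v) to donor buffer (50 mM MOPSO, pH 6.5, 5.0% glycocholic acid). After 18 h at 37 °C, LC/MS or LC/UV gave donor and acceptor levels for Pe.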

Series [2] can be described thus: Metabolic stability in human hepatic microsome. The following applies: microsomes. It is filed as in vitro ADME.

In series [1] (pH 6.5), `CC[C@H](C)[C@H]1C(=O)N[C@@H](COC(C)(C)C)C(=O)N[C@@H](C)CC(=O)N(C)[C@@H](C)C(=O)N(C)[C@@H](Cc2ccccc2)C(=O)N(C)CC(=O)N(C)[C@@H](CC(C)C)C(=O)N[C@@H]([C@@H](C)O)C(=O)N(C)[C@@H](C)C(=O)N(C)[C@@H](CC(C)C)C(=O)N1C` [DP-779] (cyclo([NMeA][NMeF][Sar][NMeL]T[NMeA][NMeL][NMeI]S(tBu)[β3hA])) displayed a Papp at 18 hours, 50 µM of 37 ×10⁻⁶ cm/s. Further, the microsomal CLint at 1 uM in series [2] (human, pH 7.4, CL NADPH(+)) turned out to be 78 µL/min/mg.
As to `CC[C@H](C)[C@@H]1NC(=O)[C@H](CC(C)C)N(C)C(=O)[C@H](Cc2ccccc2)N(C)C(=O)[C@@H](C(C)C)NC(=O)C[C@H](C)NC(=O)[C@H](CC(C)C)N(C)C(=O)[C@H](C)N(C)C(=O)[C@H]([C@@H](C)O)NC(=O)[C@H](Cc2ccccc2)N(C)C(=O)[C@H](C)N(C)C1=O` [DP-780] (cyclo(I[NMeA][NMeF]T[NMeA][NMeL][β3hA][dV][NMeF][NMeL])), the Papp at 18 hours, 50 µM in series [1] (pH 6.5) is 41 ×10⁻⁶ cm/s. This compound displayed a microsomal CLint at 1 uM in series [2] (human, pH 7.4, CL NADPH(+)) of 249 µL/min/mg.
In series [1] (pH 6.5), `CC[C@H](C)[C@@H]1NC(=O)[C@H](CC(C)C)N(C)C(=O)[C@H](Cc2ccccc2)N(C)C(=O)[C@@H](C(C)C)NC(=O)C[C@H](C)NC(=O)[C@H](CC(C)C)N(C)C(=O)[C@H](C)N(C)C(=O)[C@H]([C@@H](C)O)NC(=O)[C@H](Cc2ccccc2)N(C)C(=O)[C@H](CC(C)C)N(C)C1=O` [DP-781] (cyclo(I[NMeL][NMeF]T[NMeA][NMeL][β3hA][dV][NMeF][NMeL])) yielded a Papp at 18 hours, 50 µM of 29 ×10⁻⁶ cm/s. The same compound gave a microsomal CLint at 1 uM in series [2] (human, pH 7.4, CL NADPH(+)) of 142 µL/min/mg.
The corresponding values for `CC[C@H](C)[C@@H]1NC(=O)[C@H](CC(C)C)N(C)C(=O)[C@H](Cc2ccccc2)N(C)C(=O)[C@@H](C(C)C)NC(=O)C[C@H](C)NC(=O)[C@H](CC(C)C)N(C)C(=O)[C@H](C)N(C)C(=O)[C@H]([C@@H](C)O)NC(=O)[C@H](Cc2cccc(Cl)c2)N(C)C(=O)[C@H](CC(C)C)N(C)C1=O` [DP-782] (cyclo(I[NMeL][NMePhe(3-Cl)]T[NMeA][NMeL][β3hA][dV][NMeF][NMeL])) are 10 ×10⁻⁶ cm/s and 127 µL/min/mg.
Take `CC[C@H](C)[C@@H]1NC(=O)[C@H](C)N(C)C(=O)[C@@H](C)N(C)C(=O)C[C@H](C)NC(=O)[C@H](CC(C)C)N(C)C(=O)[C@H](C)N(C)C(=O)[C@H](Cc2ccccc2)N(C)C(=O)[C@H]([C@@H](C)O)NC(=O)[C@H](Cc2ccccc2)N(C)C(=O)[C@H](CC(C)C)N(C)C1=O` [DP-783] (cyclo(I[NMeL][NMeF]T[NMeF][NMeA][NMeL][β3hA][dNMeA][NMeA])): in series [1] (pH 6.5), the Papp at 18 hours, 50 µM came to 31 ×10⁻⁶ cm/s. In series [2] (human, pH 7.4, CL NADPH(+)), the microsomal CLint at 1 uM amounted to 269 µL/min/mg.
On the same counts, the results for `CC(C)C[C@@H]1NC(=O)[C@H](Cc2ccccc2)NC(=O)[C@H](CC(C)C)N(C)C(=O)[C@H](Cc2ccccc2)NC(=O)[C@@H](C)N(C)C(=O)C[C@H](C)NC(=O)[C@H](Cc2ccccc2)N(C)C(=O)CNC(=O)[C@H]([C@@H](C)O)NC(=O)[C@H](CC(C)C)NC1=O` [DP-784] (cyclo(FLLTG[NMeF][β3hA][dNMeA]F[NMeL])) are 46 ×10⁻⁶ cm/s and 97 µL/min/mg.
Take `CC(C)C[C@H]1C(=O)N(C)[C@@H](Cc2ccccc2)C(=O)NCC(=O)N[C@@H](C)CC(=O)N(C)CCCC(=O)N[C@@H]([C@@H](C)O)C(=O)N(C)[C@@H](C)C(=O)N(C)[C@@H](Cc2ccccc2)C(=O)N[C@@H](COC(C)(C)C)C(=O)N1C` [DP-785] (cyclo(G[β3hA][NMeGABA]T[NMeA][NMeF]S(tBu)[NMeL][NMeF])): in series [1] (pH 6.5), the Papp at 18 hours, 50 µM amounted to 29 ×10⁻⁶ cm/s. In addition, the microsomal CLint at 1 uM in series [2] (human, pH 7.4, CL NADPH(+)) is 193 µL/min/mg.
On to `CC(C)C[C@H]1C(=O)N[C@@H](COC(C)(C)C)C(=O)N[C@@H](C)CC(=O)N[C@H](C)C(=O)N(C)[C@@H](C)C(=O)N(C)[C@@H](Cc2ccccc2)C(=O)N(C)[C@@H](C)C(=O)N[C@@H]([C@@H](C)O)C(=O)N(C)[C@@H](C)C(=O)N1C` [DP-786] (cyclo([NMeA][NMeF][NMeA]T[NMeA][NMeL]S(tBu)[β3hA][dA])), for which the Papp at 18 hours, 50 µM in series [1] (membrane permeation rate (Pe), 50 mM MOPSO buffer pH 6.5 with 5.0% glycocholic acid, 37° C., 18 hours, read-out: iPAMPA Pe) is 5.9 ×10⁻⁶ cm/s. Besides, in series [2] (pH 7.4, human hepatic microsome, NADPH(+), read-out: CL NADPH(+)), the microsomal CLint at 1 uM worked out at 14 µL/min/mg.
